# Laboratory results from US12558428B2, “Heterobifunctional compounds and their use in treating disease” (Halda Therapeutics OpCo, Inc., priority 2024, dated 2026).
# System: MCF7 cells (ATCC #HTB-22)
# Assay: Cellular growth inhibition assay, MCF7 cells purchased from ATCC
# Type: cell-based
# Details: Homo sapiens, MCF7, 144 h, Table 8-A; MCF7 cells purchased from ATCC; six days; CellTiter-Glo; read-out: GI50
# In short: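 MCF7 cells in RPMI 1640 with 10% FBS and 0.2 U/ml insulin, seeded at 1,500 cells/well (ATCC) or 225 cells/well (ECACC). Compounds added 24 h later, then 6 days at 37° C. Viability by CellTiter-Glo 2.0 luminescence. GI50 from four-parameter fit.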
row,Compound,GI50 [nM]
1,Cc1sc2c(c1C)C(c1ccc(N3CC4(CC(CN5CCN(c6cc(F)c([C@H]7c8ccc(O)cc8CC[C@H]7c7ccccc7)c(F)c6)CC5)C4)C3)cc1)=N[C@@H](C)c1nnc(C)n1-2 [III-278],50 to 500
2,Cc1sc2c(c1C)C(c1ccc(N3CC4(C3)CC(O)(CN3CCN(c5cc(F)c([C@@H]6c7ccc(O)cc7CC[C@@H]6c6ccc(F)cc6)c(F)c5)CC3)C4)cc1)=N[C@@H](C)c1nnc(C)n1-2 [III-279],< 50
3,Cc1sc2c(c1C)C(c1ccc(N3CC4(C3)CC(O)(CN3CCN(c5cc(F)c([C@H]6c7ccc(O)cc7CC[C@H]6c6ccc(F)cc6)c(F)c5)CC3)C4)cc1)=N[C@@H](C)c1nnc(C)n1-2 [III-280],50 to 500
4,Cc1sc2c(c1C)C(c1ccc(N3CC4(CC(CN5CCN(c6ccc([C@H]7c8ccc(O)cc8CC[C@H]7c7ccc(F)cc7)cc6F)CC5)C4)C3)cc1)=N[C@@H](C)c1nnc(C)n1-2 [III-281],500 to 2500
5,Cc1sc2c(c1C)C(c1ccc(N3CC4(CC(CN5CCN(c6ccc([C@@H]7c8ccc(O)cc8CC[C@@H]7c7ccc(F)cc7)cc6F)CC5)C4)C3)cc1)=N[C@@H](C)c1nnc(C)n1-2 [III-282],< 50
6,Cc1cc([C@H]2c3ccc(O)cc3CC[C@H]2c2ccc(F)cc2)ccc1N1CCN(CC2(O)CCN(c3ccc(C4=N[C@@H](C)c5nnc(C)n5-c5sc(C)c(C)c54)cc3)CC2)CC1 [III-283],50 to 500
7,Cc1cc([C@@H]2c3ccc(O)cc3CC[C@@H]2c2ccc(F)cc2)ccc1N1CCN(CC2(O)CCN(c3ccc(C4=N[C@@H](C)c5nnc(C)n5-c5sc(C)c(C)c54)cc3)CC2)CC1 [III-284],50 to 500
8,Cc1cc(N2CCN(CC3(O)CCN(c4ccc(C5=N[C@@H](C)c6nnc(C)n6-c6sc(C)c(C)c65)cc4)CC3)CC2)c(F)cc1[C@H]1c2ccc(O)cc2CC[C@H]1c1ccccc1 [III-285],50 to 500
9,Cc1cc(N2CCN(CC3(O)CCN(c4ccc(C5=N[C@@H](C)c6nnc(C)n6-c6sc(C)c(C)c65)cc4)CC3)CC2)c(F)cc1[C@@H]1c2ccc(O)cc2CC[C@@H]1c1ccccc1 [III-286],< 50
10,Cc1cc([C@@H]2c3ccc(O)cc3CC[C@@H]2c2ccccc2)c(F)cc1N1CCN(CC2(O)CCN(c3ccc(C4=N[C@@H](C)c5nnc(C)n5-c5sc(C)c(C)c54)cc3)CC2)CC1 [III-287],50 to 500
11,Cc1cc([C@H]2c3ccc(O)cc3CC[C@H]2c2ccccc2)c(F)cc1N1CCN(CC2(O)CCN(c3ccc(C4=N[C@@H](C)c5nnc(C)n5-c5sc(C)c(C)c54)cc3)CC2)CC1 [III-288],50 to 500
12,Cc1sc2c(c1C)C(c1ccc(N3CCC(O)(CN4CCN(c5ccc([C@@H]6c7ccc(O)cc7CC[C@@H]6c6cccc(F)c6)c(F)c5)CC4)CC3)cc1)=N[C@@H](C)c1nnc(C)n1-2 [III-289],< 50
13,Cc1sc2c(c1C)C(c1ccc(N3CCC(O)(CN4CCN(c5ccc([C@H]6c7ccc(O)cc7CC[C@H]6c6cccc(F)c6)c(F)c5)CC4)CC3)cc1)=N[C@@H](C)c1nnc(C)n1-2 [III-290],50 to 500
14,Cc1sc2c(c1C)C(c1ccc(N3CCC(O)(CN4CCN(c5ccc([C@@H]6c7ccc(O)cc7CC[C@@H]6c6ccccc6F)c(F)c5)CC4)CC3)cc1)=N[C@@H](C)c1nnc(C)n1-2 [III-291],< 50
15,Cc1sc2c(c1C)C(c1ccc(N3CCC(O)(CN4CCN(c5ccc([C@H]6c7ccc(O)cc7CC[C@H]6c6ccccc6F)c(F)c5)CC4)CC3)cc1)=N[C@@H](C)c1nnc(C)n1-2 [III-292],50 to 500
16,Cc1sc2c(c1C)C(c1ccc(N3CCC(O)(CN4CCN(c5ccc([C@@H]6c7ccc(O)cc7CC[C@@H]6c6c(F)cccc6F)c(F)c5)CC4)CC3)cc1)=N[C@@H](C)c1nnc(C)n1-2 [III-293],< 50

# System: T-Rex 293 cells having increased expression of estrogen receptor alpha protein
# Assay: Cellular growth inhibition assay, T-Rex 293 cells, (+) doxycycline
# Type: cell-based
# Details: T-REx-293, 72 h, Table 7-A; T-Rex 293 cells with doxycycline (increased ERα expression); 72 hours; CellTiter-Glo; read-out: (+) Dox GI50
# In short: (§1)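 ERα overexpression was switched on by 3 ng/mL doxycycline in a stably transfected T-Rex 293 clone, while uninduced cells served as the comparison line. Proliferation over 72 h of compound treatment was assessed by ATP luminescence, and GI50 values came from four-parameter curves.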
row,Compound,GI50 [nM]
1,Cc1sc2c(c1C)C(c1ccc(N3CC4(CC(CN5CCN(c6cc(F)c([C@H]7c8ccc(O)cc8CC[C@H]7c7ccccc7)c(F)c6)CC5)C4)C3)cc1)=N[C@@H](C)c1nnc(C)n1-2 [III-278],50 to 500
2,Cc1sc2c(c1C)C(c1ccc(N3CC4(C3)CC(O)(CN3CCN(c5cc(F)c([C@@H]6c7ccc(O)cc7CC[C@@H]6c6ccc(F)cc6)c(F)c5)CC3)C4)cc1)=N[C@@H](C)c1nnc(C)n1-2 [III-279],< 50
3,Cc1sc2c(c1C)C(c1ccc(N3CC4(C3)CC(O)(CN3CCN(c5cc(F)c([C@H]6c7ccc(O)cc7CC[C@H]6c6ccc(F)cc6)c(F)c5)CC3)C4)cc1)=N[C@@H](C)c1nnc(C)n1-2 [III-280],50 to 500
4,Cc1sc2c(c1C)C(c1ccc(N3CC4(CC(CN5CCN(c6ccc([C@H]7c8ccc(O)cc8CC[C@H]7c7ccc(F)cc7)cc6F)CC5)C4)C3)cc1)=N[C@@H](C)c1nnc(C)n1-2 [III-281],50 to 500
5,Cc1sc2c(c1C)C(c1ccc(N3CC4(CC(CN5CCN(c6ccc([C@@H]7c8ccc(O)cc8CC[C@@H]7c7ccc(F)cc7)cc6F)CC5)C4)C3)cc1)=N[C@@H](C)c1nnc(C)n1-2 [III-282],< 50
6,Cc1cc([C@H]2c3ccc(O)cc3CC[C@H]2c2ccc(F)cc2)ccc1N1CCN(CC2(O)CCN(c3ccc(C4=N[C@@H](C)c5nnc(C)n5-c5sc(C)c(C)c54)cc3)CC2)CC1 [III-283],50 to 500
7,Cc1cc([C@@H]2c3ccc(O)cc3CC[C@@H]2c2ccc(F)cc2)ccc1N1CCN(CC2(O)CCN(c3ccc(C4=N[C@@H](C)c5nnc(C)n5-c5sc(C)c(C)c54)cc3)CC2)CC1 [III-284],50 to 500
8,Cc1cc(N2CCN(CC3(O)CCN(c4ccc(C5=N[C@@H](C)c6nnc(C)n6-c6sc(C)c(C)c65)cc4)CC3)CC2)c(F)cc1[C@H]1c2ccc(O)cc2CC[C@H]1c1ccccc1 [III-285],50 to 500
9,Cc1cc(N2CCN(CC3(O)CCN(c4ccc(C5=N[C@@H](C)c6nnc(C)n6-c6sc(C)c(C)c65)cc4)CC3)CC2)c(F)cc1[C@@H]1c2ccc(O)cc2CC[C@@H]1c1ccccc1 [III-286],< 50
10,Cc1cc([C@@H]2c3ccc(O)cc3CC[C@@H]2c2ccccc2)c(F)cc1N1CCN(CC2(O)CCN(c3ccc(C4=N[C@@H](C)c5nnc(C)n5-c5sc(C)c(C)c54)cc3)CC2)CC1 [III-287],< 50
11,Cc1cc([C@H]2c3ccc(O)cc3CC[C@H]2c2ccccc2)c(F)cc1N1CCN(CC2(O)CCN(c3ccc(C4=N[C@@H](C)c5nnc(C)n5-c5sc(C)c(C)c54)cc3)CC2)CC1 [III-288],50 to 500
12,Cc1sc2c(c1C)C(c1ccc(N3CCC(O)(CN4CCN(c5ccc([C@@H]6c7ccc(O)cc7CC[C@@H]6c6cccc(F)c6)c(F)c5)CC4)CC3)cc1)=N[C@@H](C)c1nnc(C)n1-2 [III-289],< 50
13,Cc1sc2c(c1C)C(c1ccc(N3CCC(O)(CN4CCN(c5ccc([C@H]6c7ccc(O)cc7CC[C@H]6c6cccc(F)c6)c(F)c5)CC4)CC3)cc1)=N[C@@H](C)c1nnc(C)n1-2 [III-290],< 50
14,Cc1sc2c(c1C)C(c1ccc(N3CCC(O)(CN4CCN(c5ccc([C@@H]6c7ccc(O)cc7CC[C@@H]6c6ccccc6F)c(F)c5)CC4)CC3)cc1)=N[C@@H](C)c1nnc(C)n1-2 [III-291],< 50
15,Cc1sc2c(c1C)C(c1ccc(N3CCC(O)(CN4CCN(c5ccc([C@H]6c7ccc(O)cc7CC[C@H]6c6ccccc6F)c(F)c5)CC4)CC3)cc1)=N[C@@H](C)c1nnc(C)n1-2 [III-292],50 to 500
16,Cc1sc2c(c1C)C(c1ccc(N3CCC(O)(CN4CCN(c5ccc([C@@H]6c7ccc(O)cc7CC[C@@H]6c6c(F)cccc6F)c(F)c5)CC4)CC3)cc1)=N[C@@H](C)c1nnc(C)n1-2 [III-293],< 50

# System: T-Rex 293 cells lacking increased expression of estrogen receptor alpha protein
# Assay: Cellular growth inhibition assay, T-Rex 293 cells, (−) doxycycline
# Type: cell-based
# Details: T-REx-293, 72 h, Table 7-A; T-Rex 293 cells without doxycycline (lacking increased ERα expression); 72 hours; CellTiter-Glo; read-out: (−) Dox GI50
# In short: as §1
row,Compound,GI50 [nM]
1,Cc1sc2c(c1C)C(c1ccc(N3CC4(CC(CN5CCN(c6cc(F)c([C@H]7c8ccc(O)cc8CC[C@H]7c7ccccc7)c(F)c6)CC5)C4)C3)cc1)=N[C@@H](C)c1nnc(C)n1-2 [III-278],500 to 2500
2,Cc1sc2c(c1C)C(c1ccc(N3CC4(C3)CC(O)(CN3CCN(c5cc(F)c([C@@H]6c7ccc(O)cc7CC[C@@H]6c6ccc(F)cc6)c(F)c5)CC3)C4)cc1)=N[C@@H](C)c1nnc(C)n1-2 [III-279],500 to 2500
3,Cc1sc2c(c1C)C(c1ccc(N3CC4(C3)CC(O)(CN3CCN(c5cc(F)c([C@H]6c7ccc(O)cc7CC[C@H]6c6ccc(F)cc6)c(F)c5)CC3)C4)cc1)=N[C@@H](C)c1nnc(C)n1-2 [III-280],500 to 2500
4,Cc1sc2c(c1C)C(c1ccc(N3CC4(CC(CN5CCN(c6ccc([C@H]7c8ccc(O)cc8CC[C@H]7c7ccc(F)cc7)cc6F)CC5)C4)C3)cc1)=N[C@@H](C)c1nnc(C)n1-2 [III-281],500 to 2500
5,Cc1sc2c(c1C)C(c1ccc(N3CC4(CC(CN5CCN(c6ccc([C@@H]7c8ccc(O)cc8CC[C@@H]7c7ccc(F)cc7)cc6F)CC5)C4)C3)cc1)=N[C@@H](C)c1nnc(C)n1-2 [III-282],50 to 500
6,Cc1cc([C@H]2c3ccc(O)cc3CC[C@H]2c2ccc(F)cc2)ccc1N1CCN(CC2(O)CCN(c3ccc(C4=N[C@@H](C)c5nnc(C)n5-c5sc(C)c(C)c54)cc3)CC2)CC1 [III-283],500 to 2500
7,Cc1cc([C@@H]2c3ccc(O)cc3CC[C@@H]2c2ccc(F)cc2)ccc1N1CCN(CC2(O)CCN(c3ccc(C4=N[C@@H](C)c5nnc(C)n5-c5sc(C)c(C)c54)cc3)CC2)CC1 [III-284],500 to 2500
8,Cc1cc(N2CCN(CC3(O)CCN(c4ccc(C5=N[C@@H](C)c6nnc(C)n6-c6sc(C)c(C)c65)cc4)CC3)CC2)c(F)cc1[C@H]1c2ccc(O)cc2CC[C@H]1c1ccccc1 [III-285],50 to 500
9,Cc1cc(N2CCN(CC3(O)CCN(c4ccc(C5=N[C@@H](C)c6nnc(C)n6-c6sc(C)c(C)c65)cc4)CC3)CC2)c(F)cc1[C@@H]1c2ccc(O)cc2CC[C@@H]1c1ccccc1 [III-286],500 to 2500
10,Cc1cc([C@@H]2c3ccc(O)cc3CC[C@@H]2c2ccccc2)c(F)cc1N1CCN(CC2(O)CCN(c3ccc(C4=N[C@@H](C)c5nnc(C)n5-c5sc(C)c(C)c54)cc3)CC2)CC1 [III-287],500 to 2500
11,Cc1cc([C@H]2c3ccc(O)cc3CC[C@H]2c2ccccc2)c(F)cc1N1CCN(CC2(O)CCN(c3ccc(C4=N[C@@H](C)c5nnc(C)n5-c5sc(C)c(C)c54)cc3)CC2)CC1 [III-288],500 to 2500
12,Cc1sc2c(c1C)C(c1ccc(N3CCC(O)(CN4CCN(c5ccc([C@@H]6c7ccc(O)cc7CC[C@@H]6c6cccc(F)c6)c(F)c5)CC4)CC3)cc1)=N[C@@H](C)c1nnc(C)n1-2 [III-289],500 to 2500
13,Cc1sc2c(c1C)C(c1ccc(N3CCC(O)(CN4CCN(c5ccc([C@H]6c7ccc(O)cc7CC[C@H]6c6cccc(F)c6)c(F)c5)CC4)CC3)cc1)=N[C@@H](C)c1nnc(C)n1-2 [III-290],50 to 500
14,Cc1sc2c(c1C)C(c1ccc(N3CCC(O)(CN4CCN(c5ccc([C@@H]6c7ccc(O)cc7CC[C@@H]6c6ccccc6F)c(F)c5)CC4)CC3)cc1)=N[C@@H](C)c1nnc(C)n1-2 [III-291],500 to 2500
15,Cc1sc2c(c1C)C(c1ccc(N3CCC(O)(CN4CCN(c5ccc([C@H]6c7ccc(O)cc7CC[C@H]6c6ccccc6F)c(F)c5)CC4)CC3)cc1)=N[C@@H](C)c1nnc(C)n1-2 [III-292],50 to 500
16,Cc1sc2c(c1C)C(c1ccc(N3CCC(O)(CN4CCN(c5ccc([C@@H]6c7ccc(O)cc7CC[C@@H]6c6c(F)cccc6F)c(F)c5)CC4)CC3)cc1)=N[C@@H](C)c1nnc(C)n1-2 [III-293],500 to 2500
